Data on 19 compounds can be found in PubChem BioAssay (NCI).

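Method: 48-hour compound exposure of cells in 96-well plates, five concentrations, linear interpolation of endpoints. The concentration for 50% growth inhibition is given as GI50. At the TGI there is no net growth.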 A value given as a limit tells only on which side of the number the result lay.

For one experiment, the system named is SK-MEL-2 melanoma. Nature of the experiment: growth of human tumour cells (NCI), 48 h.
As to `C/C(=N\Nc1nc2ccccc2s1)c1ccc2ccccc2n1`, the TGI is > 100 µM.
Consider `CN1N=C(c2ccncc2)OC1c1ccccc1F` (stereo not given), for which the TGI was > 100 µM.
`O=C(/C=C/c1ccc2c(c1)OCO2)Cc1nc2ccccc2[nH]c1=O` returned a TGI of 50.7 µM.
Turning to `Cc1c(-c2ccccc2)[nH]n(C2=NCCN2)c1=O`, the TGI was > 100 µM.
With `COc1ccc(Oc2cnn(C(Br)(Br)C(C)=O)c(=O)c2Br)cc1`, the TGI worked out at 31.4 µM.
For the compound `O=S1(=O)c2cnccc2NC(=NCc2ccccc2)N1c1ccccc1`, the TGI is > 100 µM.
Turning to `CN(C)CCCNC(=O)c1c(O)c2ccccc2n(C)c1=O`, the TGI was > 100 µM.
Turning to `COc1ccc(-n2nc(C)c3c(Nc4ccc(NC(=O)Nc5ccc(Cl)c(C(F)(F)F)c5)cc4)ncnc32)cc1`, the GI50 was 2.23 µM and the TGI turned out to be 4.43 µM.
With `Cc1cc(O)c(-c2cc(O)c(C)cc2O)cc1O`, the TGI was determined as 33 µM.
On to `O=C(O)CN(CC(=O)O)C(C(=O)O)c1ccccc1` (stereo not given), for which the TGI was > 100 µM.
Turning to `CCNc1ncnc2sc(SCc3ccccc3)nc12`, the TGI was > 100 µM.
The same measure, in the same setting: the same measure for `O=C(OCC1OC(n2nc(Cn3nnc(-c4cccnc4)n3)n(-c3cccc4ccccc34)c2=S)C(OC(=O)c2ccccc2)C1OC(=O)c1ccccc1)c1ccccc1` (stereo not given): > 100 µM.
As to `CC1(C)N=C2C(=O)c3c([nH]c4ccccc34)[C@]3(C)CCC1CC23` (stereo not given in full), the TGI was > 6.25 µM.
Regarding `C[n+]1c(/C=C/c2ccc(O)c3ncccc23)[se]c2ccccc21`, the TGI is 18.3 µM.
In the case of `CC1=NNC(=O)C1C1CC(c2c[nH]c3ccccc23)=NN=C1Cl` (stereo not given), the TGI was > 100 µM.
On to `COc1ccc2c(c1)c(=O)c1c(NCCNCCO)ccc3c(=O)n(CCN(C)C)c(=O)n2c31`, for which the TGI came to 0.634 µM.
With `CC(C)N1CN(c2ccccc2)C2(CCN(CCCC(=O)c3ccc(F)cc3)CC2)C1=O`, the TGI was found to be 28.3 µM.
In the case of `CC(C)=CCC[C@@H](C)C1=C(O)C(N)=C(C)C(=O)C1=O`, the TGI was > 100 µM.
As for `c1ccc(C2CC(=NC3CCCCC3)Nc3ccccc3N2)cc1` (stereo not given), the TGI was > 100 µM.

The next experiment deals with SF-295 CNS. As to the kind of experiment: growth of human tumour cells (NCI), 48 h.
Consider `C/C(=N\Nc1nc2ccccc2s1)c1ccc2ccccc2n1`, for which the TGI is > 100 µM.
For `CN1N=C(c2ccncc2)OC1c1ccccc1F` (stereo not given), the TGI was > 100 µM.
Still for that read-out and setting: the same measure for `O=C(/C=C/c1ccc2c(c1)OCO2)Cc1nc2ccccc2[nH]c1=O`: 52.7 µM; for `Cc1c(-c2ccccc2)[nH]n(C2=NCCN2)c1=O`: > 100 µM; for `COc1ccc(Oc2cnn(C(Br)(Br)C(C)=O)c(=O)c2Br)cc1`: 51.6 µM.
For `O=S1(=O)c2cnccc2NC(=NCc2ccccc2)N1c1ccccc1`, the TGI was > 100 µM.
Consider `CN(C)CCCNC(=O)c1c(O)c2ccccc2n(C)c1=O`, for which the TGI was > 100 µM.
Regarding `COc1ccc(-n2nc(C)c3c(Nc4ccc(NC(=O)Nc5ccc(Cl)c(C(F)(F)F)c5)cc4)ncnc32)cc1`, the GI50 was 1.58 µM and the TGI was found to be 3.49 µM.
For the compound `Cc1cc(O)c(-c2cc(O)c(C)cc2O)cc1O`, the TGI was determined as 31.2 µM.
The same measure, in the same setting: the same measure for `O=C(O)CN(CC(=O)O)C(C(=O)O)c1ccccc1` (stereo not given): > 100 µM; for `CCNc1ncnc2sc(SCc3ccccc3)nc12`: > 100 µM; for `O=C(OCC1OC(n2nc(Cn3nnc(-c4cccnc4)n3)n(-c3cccc4ccccc34)c2=S)C(OC(=O)c2ccccc2)C1OC(=O)c1ccccc1)c1ccccc1` (stereo not given): > 100 µM.
On to `CC1(C)N=C2C(=O)c3c([nH]c4ccccc34)[C@]3(C)CCC1CC23` (stereo not given in full), for which the TGI was > 6.25 µM.
The same measure, in the same setting: in the case of `C[n+]1c(/C=C/c2ccc(O)c3ncccc23)[se]c2ccccc21` it was 25.1 µM.
With `CC1=NNC(=O)C1C1CC(c2c[nH]c3ccccc23)=NN=C1Cl` (stereo not given), the TGI is > 100 µM.
For `COc1ccc2c(c1)c(=O)c1c(NCCNCCO)ccc3c(=O)n(CCN(C)C)c(=O)n2c31`, the TGI came to 1.84 µM.
In the case of `CC(C)N1CN(c2ccccc2)C2(CCN(CCCC(=O)c3ccc(F)cc3)CC2)C1=O`, the TGI came to 26.9 µM.
`CC(C)=CCC[C@@H](C)C1=C(O)C(N)=C(C)C(=O)C1=O`: the TGI is > 72.3 µM.
For `c1ccc(C2CC(=NC3CCCCC3)Nc3ccccc3N2)cc1` (stereo not given), the TGI was > 100 µM.

The next experiment concerns EKVX NSCLC. As to the kind of experiment: growth of human tumour cells (NCI), 48 h.
In the case of `C/C(=N\Nc1nc2ccccc2s1)c1ccc2ccccc2n1`, the TGI is > 100 µM.
For `CN1N=C(c2ccncc2)OC1c1ccccc1F` (stereo not given), the TGI is > 100 µM.
Take `O=C(/C=C/c1ccc2c(c1)OCO2)Cc1nc2ccccc2[nH]c1=O`: the TGI was > 100 µM.
Consider `Cc1c(-c2ccccc2)[nH]n(C2=NCCN2)c1=O`, for which the TGI was > 100 µM.
On the same count and under the same terms, in the case of `COc1ccc(Oc2cnn(C(Br)(Br)C(C)=O)c(=O)c2Br)cc1` it was 36.1 µM; in that of `O=S1(=O)c2cnccc2NC(=NCc2ccccc2)N1c1ccccc1`, > 100 µM.
For `CN(C)CCCNC(=O)c1c(O)c2ccccc2n(C)c1=O`, the TGI was > 100 µM.
Regarding `COc1ccc(-n2nc(C)c3c(Nc4ccc(NC(=O)Nc5ccc(Cl)c(C(F)(F)F)c5)cc4)ncnc32)cc1`, the GI50 was 2.19 µM and the TGI was 5.55 µM.
For the compound `Cc1cc(O)c(-c2cc(O)c(C)cc2O)cc1O`, the TGI is 28.7 µM.
Same read-out and setting: in the case of `O=C(O)CN(CC(=O)O)C(C(=O)O)c1ccccc1` (stereo not given) it was > 100 µM; in that of `CCNc1ncnc2sc(SCc3ccccc3)nc12`, > 100 µM.
On the same count and under the same terms, in the case of `O=C(OCC1OC(n2nc(Cn3nnc(-c4cccnc4)n3)n(-c3cccc4ccccc34)c2=S)C(OC(=O)c2ccccc2)C1OC(=O)c1ccccc1)c1ccccc1` (stereo not given) it was > 100 µM; in that of `CC1(C)N=C2C(=O)c3c([nH]c4ccccc34)[C@]3(C)CCC1CC23` (stereo not given in full), > 6.25 µM.
Turning to `C[n+]1c(/C=C/c2ccc(O)c3ncccc23)[se]c2ccccc21`, the TGI worked out at 28 µM.
Same read-out and setting: the same measure for `CC1=NNC(=O)C1C1CC(c2c[nH]c3ccccc23)=NN=C1Cl` (stereo not given): > 100 µM.
The compound `COc1ccc2c(c1)c(=O)c1c(NCCNCCO)ccc3c(=O)n(CCN(C)C)c(=O)n2c31` gave a TGI of 0.819 µM.
Take `CC(C)N1CN(c2ccccc2)C2(CCN(CCCC(=O)c3ccc(F)cc3)CC2)C1=O`: the TGI was > 100 µM.
Same read-out and setting: the same measure for `CC(C)=CCC[C@@H](C)C1=C(O)C(N)=C(C)C(=O)C1=O`: > 100 µM.
As to `c1ccc(C2CC(=NC3CCCCC3)Nc3ccccc3N2)cc1` (stereo not given), the TGI was > 100 µM.

Another experiment deals with HL-60(TB) leukemia. Nature of the experiment: growth of human tumour cells (NCI), 48 h.
`C/C(=N\Nc1nc2ccccc2s1)c1ccc2ccccc2n1` showed a TGI of 52.9 µM.
For the compound `CN1N=C(c2ccncc2)OC1c1ccccc1F` (stereo not given), the TGI was > 100 µM.
With `O=C(/C=C/c1ccc2c(c1)OCO2)Cc1nc2ccccc2[nH]c1=O`, the TGI was > 100 µM.
`Cc1c(-c2ccccc2)[nH]n(C2=NCCN2)c1=O`: the TGI is > 100 µM.
`COc1ccc(Oc2cnn(C(Br)(Br)C(C)=O)c(=O)c2Br)cc1` returned a TGI of 10.9 µM.
In the case of `O=S1(=O)c2cnccc2NC(=NCc2ccccc2)N1c1ccccc1`, the TGI is > 100 µM.
Regarding `CN(C)CCCNC(=O)c1c(O)c2ccccc2n(C)c1=O`, the TGI was > 100 µM.
As for `COc1ccc(-n2nc(C)c3c(Nc4ccc(NC(=O)Nc5ccc(Cl)c(C(F)(F)F)c5)cc4)ncnc32)cc1`, the GI50 is 2.1 µM and the TGI stood at 4.95 µM.
Compound `Cc1cc(O)c(-c2cc(O)c(C)cc2O)cc1O` gave a TGI of 3.88 µM.
On to `O=C(O)CN(CC(=O)O)C(C(=O)O)c1ccccc1` (stereo not given), for which the TGI is > 100 µM.
`CCNc1ncnc2sc(SCc3ccccc3)nc12` showed a TGI of 56.4 µM.
As for `O=C(OCC1OC(n2nc(Cn3nnc(-c4cccnc4)n3)n(-c3cccc4ccccc34)c2=S)C(OC(=O)c2ccccc2)C1OC(=O)c1ccccc1)c1ccccc1` (stereo not given), the TGI is > 100 µM.
Consider `CC1(C)N=C2C(=O)c3c([nH]c4ccccc34)[C@]3(C)CCC1CC23` (stereo not given in full), for which the TGI was > 6.25 µM.
The same measure, in the same setting: the same measure for `C[n+]1c(/C=C/c2ccc(O)c3ncccc23)[se]c2ccccc21`: 7.66 µM; for `CC1=NNC(=O)C1C1CC(c2c[nH]c3ccccc23)=NN=C1Cl` (stereo not given): 53.6 µM.
With `COc1ccc2c(c1)c(=O)c1c(NCCNCCO)ccc3c(=O)n(CCN(C)C)c(=O)n2c31`, the TGI was > 100 µM.
As to `CC(C)N1CN(c2ccccc2)C2(CCN(CCCC(=O)c3ccc(F)cc3)CC2)C1=O`, the TGI turned out to be 40.7 µM.
As to `CC(C)=CCC[C@@H](C)C1=C(O)C(N)=C(C)C(=O)C1=O`, the TGI is 10.9 µM.
On to `c1ccc(C2CC(=NC3CCCCC3)Nc3ccccc3N2)cc1` (stereo not given), for which the TGI is > 100 µM.

For the next experiment, the system named is HS 578T breast. As to the kind of experiment: growth of human tumour cells (NCI), 48 h.
`C/C(=N\Nc1nc2ccccc2s1)c1ccc2ccccc2n1`: the TGI was > 100 µM.
For the compound `CN1N=C(c2ccncc2)OC1c1ccccc1F` (stereo not given), the TGI was > 100 µM.
As for `O=C(/C=C/c1ccc2c(c1)OCO2)Cc1nc2ccccc2[nH]c1=O`, the TGI came to 40 µM.
Consider `Cc1c(-c2ccccc2)[nH]n(C2=NCCN2)c1=O`, for which the TGI was > 100 µM.
As for `COc1ccc(Oc2cnn(C(Br)(Br)C(C)=O)c(=O)c2Br)cc1`, the TGI was > 71.6 µM.
In the case of `O=S1(=O)c2cnccc2NC(=NCc2ccccc2)N1c1ccccc1`, the TGI was > 100 µM.
Same read-out and setting: in the case of `CN(C)CCCNC(=O)c1c(O)c2ccccc2n(C)c1=O` it was > 100 µM.
`COc1ccc(-n2nc(C)c3c(Nc4ccc(NC(=O)Nc5ccc(Cl)c(C(F)(F)F)c5)cc4)ncnc32)cc1`: the GI50 was 1.58 µM and the TGI was determined as 4.2 µM.
`Cc1cc(O)c(-c2cc(O)c(C)cc2O)cc1O`: the TGI is > 72.2 µM.
Same read-out and setting: the same measure for `O=C(O)CN(CC(=O)O)C(C(=O)O)c1ccccc1` (stereo not given): > 100 µM; for `CCNc1ncnc2sc(SCc3ccccc3)nc12`: > 100 µM; for `O=C(OCC1OC(n2nc(Cn3nnc(-c4cccnc4)n3)n(-c3cccc4ccccc34)c2=S)C(OC(=O)c2ccccc2)C1OC(=O)c1ccccc1)c1ccccc1` (stereo not given): > 100 µM.
On the same count and under the same terms, in the case of `CC1(C)N=C2C(=O)c3c([nH]c4ccccc34)[C@]3(C)CCC1CC23` (stereo not given in full) it was > 6.25 µM; in that of `C[n+]1c(/C=C/c2ccc(O)c3ncccc23)[se]c2ccccc21`, 63.5 µM; in that of `CC1=NNC(=O)C1C1CC(c2c[nH]c3ccccc23)=NN=C1Cl` (stereo not given), > 100 µM.
In the case of `COc1ccc2c(c1)c(=O)c1c(NCCNCCO)ccc3c(=O)n(CCN(C)C)c(=O)n2c31`, the TGI came out at 0.581 µM.
As to `CC(C)N1CN(c2ccccc2)C2(CCN(CCCC(=O)c3ccc(F)cc3)CC2)C1=O`, the TGI came out at 49.1 µM.
With `CC(C)=CCC[C@@H](C)C1=C(O)C(N)=C(C)C(=O)C1=O`, the TGI is > 100 µM.
Same read-out and setting: the same measure for `c1ccc(C2CC(=NC3CCCCC3)Nc3ccccc3N2)cc1` (stereo not given): 94.8 µM.
